Test results taken from EP4559919A1, “TRICYCLIC-CONTAINING MACROCYCLIC COMPOUND AND USE THEREOF” (Medshine Discovery Inc., priority 2022, dated 2024).
Read-outs that look alike come from different tables or passages of the source.

What was measured:
[1] = target: T1, ALK(G1202R/L1196M) (Homo sapiens, UniProt Q9UM73, G1202R/L1196M); experiment: In vitro kinase inhibitory activity assay, Experimental method 2 (ADP-Glo); assay type: biochemical
T1 construct: purchased Carna
Method: (§1) The kinase inhibitory activity assays of the compounds against ALK, ALK^L1196M, ALK^G1202R, ALK^G1202R/L1196M, ROS1, and TRKB were conducted at Wuhan Heyan Biotechnology Co., Ltd. or Hefei PreceDo Biotechnology Co., Ltd.
(§2) Experimental materials: ALK (G1202R/L1196M) Active and TRKB were purchased from Carna; IGF1 was purchased from GenScript; PolyE4Y1 was purchased from SIGMA; ADP-Glo™ Reagent was purchased from Promega; ATP was purchased from Promega; Kinase Detection Reagent was purchased from Promega; microplate reader ( PerkinElmer).
Reaction system: ALK(G1202R/L1196M) reaction concentration 8.63 nM, ATP concentration 5.0 µM, substrate IGF1 concentration 0.2 µg/µL. ALK(G1202R/L1196M) kinase buffer was 40 mM Tris-HCl (pH 7.5) + 20 mM magnesium chloride + 0.1 mg/mL BSA + 50 µM DTT.
(§3) ALK(G1202R/L1196M) and TRKB detection method: 2 µL of kinase and 1 µL of compound were added to a 384-well plate; 2 µL of substrate/ATP mixture was added and incubated at room temperature in the dark for 60 minutes; 5 µL of ADP-Glo™ reagent was added and incubated at room temperature for 40 minutes; 10 µL of kinase detection reagent was added and incubated at room temperature for 30 minutes; the plate was read on a microplate reader, and luminescence was recorded (integration time set to 0.5 seconds).
(§4) The IC50 value could then be derived by performing a curve fit using a four-parameter logistic model (obtained using the "log(inhibitor) vs. response -- Variable slope" mode in GraphPad Prism).

[2] = target: T2, TRKB (Homo sapiens, UniProt Q16620); experiment: as above; assay type: biochemical
T2 construct: purchased Carna
T2 sequence (Q16620 32-822): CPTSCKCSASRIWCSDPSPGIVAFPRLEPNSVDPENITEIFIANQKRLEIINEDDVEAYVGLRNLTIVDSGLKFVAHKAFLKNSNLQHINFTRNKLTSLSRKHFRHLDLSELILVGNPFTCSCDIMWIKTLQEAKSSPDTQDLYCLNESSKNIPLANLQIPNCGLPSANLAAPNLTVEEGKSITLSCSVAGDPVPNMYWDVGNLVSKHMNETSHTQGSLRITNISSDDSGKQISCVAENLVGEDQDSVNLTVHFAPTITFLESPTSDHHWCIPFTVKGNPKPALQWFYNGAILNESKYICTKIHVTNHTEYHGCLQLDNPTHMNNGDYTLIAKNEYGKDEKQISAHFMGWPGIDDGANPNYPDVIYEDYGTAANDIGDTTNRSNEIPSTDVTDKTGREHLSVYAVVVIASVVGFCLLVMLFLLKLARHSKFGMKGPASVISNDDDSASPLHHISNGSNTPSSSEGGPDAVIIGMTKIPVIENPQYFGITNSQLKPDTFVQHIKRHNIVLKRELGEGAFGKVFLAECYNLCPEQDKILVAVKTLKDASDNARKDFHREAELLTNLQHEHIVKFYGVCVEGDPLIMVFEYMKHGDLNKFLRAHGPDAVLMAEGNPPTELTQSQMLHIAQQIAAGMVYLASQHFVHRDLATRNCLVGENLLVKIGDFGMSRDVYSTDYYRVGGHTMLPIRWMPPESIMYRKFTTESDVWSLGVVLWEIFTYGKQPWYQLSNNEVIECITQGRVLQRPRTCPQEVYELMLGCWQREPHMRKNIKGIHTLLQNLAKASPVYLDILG
Method: as §1, §2
TRKB reaction concentration 4.47 nM, ATP concentration 5.0 µM, substrate PolyE4Y1 concentration 0.2 µg/µL. TRKB kinase buffer was 40 mM Tris-HCl (pH 7.5) + 20 mM magnesium chloride + 2.5 mM manganese chloride + 0.1mg/mL BSA+ 50 µM DTT.
as §3, §4

[3] = system: Ba/F3-EML4-ALK-G1202R/L1196M; experiment: Anti-proliferative activity test on Ba/F3 cell lines (CellTiter-Glo); assay type: cell-based; details: Ba/F3 EML4-ALK-G1202R-L1196M; 72 hours; read-out: Half maximal inhibitory concentration IC50 for cells Ba/F3-EML4-ALK-G1202R/L1196 M
Method: (§5) • (1) Cell culture: The cell lines were cultured in an incubator at 37°C with 5% CO2. Regular passaging was performed, and cells in the logarithmic growth phase were selected for plating; • (2) Preparation of compound storage plate: The test compounds were prepared into a 10 mM solution with DMSO (Stock Con.); The compounds were then prepared into a 1 mM solution with DMSO (Work Con.); 1 µL of the stock solution was mixed with 9 µL of DMSO to prepare a 10 µL work solution. • (3) Preparation of 1000× compound storage plate (tube): The compounds were 3-fold serially diluted from […] to the lowest concentration, for a total of 8 concentrations; • (4) Preparation of 20× compound working solution: 98 µL of cell culture medium was added to a flat-bottomed 96-well transparent drug plate. From the 1000× compound storage plate, 2 µL of the compound was pipetted into the cell culture medium in the 96-well transparent drug plate. In the solvent control, 2 µL of DMSO was added. After the compound or DMSO was added, the mixture was homogenized using a pipette. • (5) Cells were stained with trypan blue and viable cells were counted to ensure a cell viability of 90% or more. The cell concentration was adjusted to an appropriate concentration; • (6) 95 µL of cell suspension (2000 cells/well) was added to each well of the compound assay cell plate, and cell-free culture medium containing 0.1% DMSO was added to the Min control wells; • (7) Administration in the compound assay cell plate: 5 µL of 20× compound working solution was added to the cell culture plate, 5 µL of DMSO-cell culture medium mixture was added to the Max control wells, and the final concentration of DMSO was 0.1%; • (8) The culture plate was then incubated in an incubator at 37°C with 5% CO2 for 72 hours; • (9) The following operations were conducted in accordance with the instructions of the Promega CellTiter-Glo Luminescent Cell Viability Assay Kit (Promega-G7573): CellTiter-Glo buffer was thawed and brought to room temperature; CellTiter-Glo substrate was brought to room temperature; CellTiter-Glo buffer was added to a bottle of CellTiter-Glo substrate to dissolve the substrate, thereby preparing CellTiter-Glo working solution; The mixture was slowly vortexed and shaken to be fully dissolved; The cell culture plate was removed and allowed to equilibrate to room temperature for 10 minutes; 50 µL (equal to half the volume of cell culture medium in each well) of CellTiter-Glo working solution was added to each well; The culture plate was shaken on an orbital shaker for 2 minutes to induce cell lysis; The plate was then left at room temperature for 10 minutes to stabilize the luminescent signal; The luminescent signal was detected using a SpectraMax Paradigm plate reader; Cell viability assay was conducted using CellTiter-Glo luminescence method.
(§6) Data analysis: The corresponding […] value (RLU) for each well was obtained from SpectraMax Paradigm readings. […] The inhibition rates corresponding to compounds at different concentrations were calculated in Excel, and the inhibition rate curves were plotted using GraphPad Prism software to calculate relevant parameters, including the maximum and minimum inhibition rates of the cells and the IC50 value.

[4] = system: Ba/F3-TEL-TRKB; experiment: as above; assay type: cell-based; details: Mus musculus, BaF3; 72 hours; read-out: Half maximal inhibitory concentration IC50 for cells Ba/F3-TEL-TRKB
Method: as §5, §6

[5] = Cell permeability test, MDCKII-MDR1 monolayer; assay type: in vitro ADME; details: dog, MDCK-MDR1, pH 7.4
Method: The permeability and efflux ratio of the test compounds were evaluated using the MDCKII-MDR1 monolayer cell test system to determine the potential of the compounds to cross the blood-brain barrier and to be effluxed by the P-gp transporter.
MDCKII-MDR1 cells (from the Netherlands Cancer Institute) were seeded into a 96-well cell plate (from Corning) at a cell density of 2.5 × 10^5 cells/mL and cultured for 7 days to form a confluent monolayer.
The apparent permeability coefficient (Papp, cm/s) was calculated using the following formula: Papp = (dCr / dt) × Vr /(A × C0). Herein, dCr/dt is the cumulative concentration of the compound at the receiving end per unit time (µM/s); Vr is the volume of the solution at the receiving end (the volumes of the solution at the apical and basal sides are 0.075 mL and 0.250 mL, respectively); A is the relative surface area of the cell monolayer (0.0804 cm^2); C0 is the initial concentration (nM) of the test compound at the dosing end or the peak area ratio of the control compound. The efflux ratio was calculated using the following formula: ER = Papp(BA) / Papp(AB). The recovery rate was calculated using the following formula: % Recovery = 100 × [(Vr × Cr)+(Vd × Cd)] /(Vd × C0). Herein, C0 is the initial concentration of the test compound at the dosing end (nM) or the peak area ratio of the control compound; Vd is the volume at the dosing end (0.075 mL for the apical side and 0.250 mL for the basal side); Cd and Cr are the final concentrations (nM) of the test compound at the dosing end and the receiving end or the peak area ratios of the control compound, respectively.

[6] = Experimental method 2, ATP 5.0 µM, substrate IGF1, read-out: Kinase half maximal inhibitory concentration IC50 ALK^G1202R/L1196M
[7] = Experimental method 2, ATP 5.0 µM, substrate PolyE4Y1, read-out: Kinase half maximal inhibitory concentration IC50 TRKB

T1 sequence (Q9UM73 19-1620 L1196M/G1202R): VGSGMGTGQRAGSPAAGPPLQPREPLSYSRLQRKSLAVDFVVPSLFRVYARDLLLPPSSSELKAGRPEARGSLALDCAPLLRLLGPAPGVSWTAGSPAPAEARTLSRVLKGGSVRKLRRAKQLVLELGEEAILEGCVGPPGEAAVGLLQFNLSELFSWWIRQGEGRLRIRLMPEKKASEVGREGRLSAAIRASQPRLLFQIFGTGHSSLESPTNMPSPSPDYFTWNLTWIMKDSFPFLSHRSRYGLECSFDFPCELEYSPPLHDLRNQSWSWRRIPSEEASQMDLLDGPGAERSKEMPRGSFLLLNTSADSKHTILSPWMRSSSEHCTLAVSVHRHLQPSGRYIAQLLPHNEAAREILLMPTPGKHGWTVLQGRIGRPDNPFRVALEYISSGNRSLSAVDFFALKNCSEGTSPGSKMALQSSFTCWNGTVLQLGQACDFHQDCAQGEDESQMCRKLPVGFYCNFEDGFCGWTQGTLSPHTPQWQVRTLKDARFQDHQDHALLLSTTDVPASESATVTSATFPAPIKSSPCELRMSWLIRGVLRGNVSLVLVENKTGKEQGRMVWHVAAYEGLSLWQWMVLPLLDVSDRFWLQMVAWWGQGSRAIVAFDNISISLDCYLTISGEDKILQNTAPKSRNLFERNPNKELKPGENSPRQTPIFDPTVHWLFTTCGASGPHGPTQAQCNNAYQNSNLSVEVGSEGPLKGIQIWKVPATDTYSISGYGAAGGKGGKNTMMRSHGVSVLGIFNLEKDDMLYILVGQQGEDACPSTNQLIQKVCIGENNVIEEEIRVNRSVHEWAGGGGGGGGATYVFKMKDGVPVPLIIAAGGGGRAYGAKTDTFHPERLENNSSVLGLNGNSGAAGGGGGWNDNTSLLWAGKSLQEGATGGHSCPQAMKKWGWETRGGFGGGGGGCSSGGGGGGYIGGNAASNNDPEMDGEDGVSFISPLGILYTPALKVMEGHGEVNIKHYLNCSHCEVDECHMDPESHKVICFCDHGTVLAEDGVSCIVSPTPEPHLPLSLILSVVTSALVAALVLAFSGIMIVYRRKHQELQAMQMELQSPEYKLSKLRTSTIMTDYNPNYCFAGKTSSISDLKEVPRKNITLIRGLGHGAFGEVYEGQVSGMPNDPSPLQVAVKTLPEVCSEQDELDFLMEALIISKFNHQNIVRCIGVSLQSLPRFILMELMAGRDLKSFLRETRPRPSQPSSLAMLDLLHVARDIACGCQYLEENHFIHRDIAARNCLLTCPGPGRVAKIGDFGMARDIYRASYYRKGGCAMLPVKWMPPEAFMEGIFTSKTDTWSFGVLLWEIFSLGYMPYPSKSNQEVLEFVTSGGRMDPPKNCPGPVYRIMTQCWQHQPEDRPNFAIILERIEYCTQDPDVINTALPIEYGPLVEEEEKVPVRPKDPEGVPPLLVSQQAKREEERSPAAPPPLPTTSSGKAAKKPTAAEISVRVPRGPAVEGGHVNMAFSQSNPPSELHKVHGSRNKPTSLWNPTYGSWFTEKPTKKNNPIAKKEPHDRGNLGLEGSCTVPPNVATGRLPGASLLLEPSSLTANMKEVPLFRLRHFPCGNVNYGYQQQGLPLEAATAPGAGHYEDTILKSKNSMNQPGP

`CON=C1NCC2(CC2)COc2ccc(F)cc2CN2c3nc4c1cnn4cc3OC[C@H]2C(F)F` [Compound 011] showed an IC50 [1, 6] of 1.7 nM and an IC50 [2, 7] of 3.4 nM.
Work on `Cc1nc2cc3c4nc2n1C(=O)NC(C)(C)COc1ccc(F)cc1CN4[C@H](C(F)F)CO3` [Compound 012] yielded an IC50 [1] of 1.5 nM, an IC50 [3] of 7 nM and an IC50 [4] of 5.2 nM. It also gave an IC50 [2] of 2.9 nM.
Work on `CC1(C)COc2ncc(F)cc2CN2c3nc4c(cc3OC[C@H]2C(F)F)ncn4C(=O)N1` [Compound 013] yielded an efflux ratio at 2.5 h, 2 µM [5] of 0.77, a Papp A→B at 2.5 h, 2 µM ([5]; 2 µM, 150 minutes, pH 7.40) of 11.8 ×10⁻⁶ cm/s and a Papp B→A at 2.5 h, 2 µM ([5]; 2 µM, 150 minutes, pH 7.40) of 9.02 ×10⁻⁶ cm/s. The IC50 [3] was 1.2 nM and the IC50 [4] was 0.3 nM.
Molecule `O=C1NC2(CC2)COc2ccc(F)cc2CN2c3nc4c(cc3OC[C@H]2C(F)F)ncn41` [Compound 014] has an IC50 [1, 6] of 0.4 nM, an IC50 [3] of 5.3 nM and an IC50 [4] of 0.2 nM. For the same molecule, the IC50 [2, 7] was 0.7 nM.
With `Cc1nn2cc3c4nc2c1C(=O)NC(C)(C)COc1ncc(F)cc1CN4[C@H](C(F)F)CO3` [Compound 015] the IC50 [1, 6] was 0.6 nM and the IC50 [2, 7] was 1.1 nM.
Molecule `CC1(C)COc2ccc(F)cc2CN2c3nc4c(c(C5CC5)nn4cc3OC[C@H]2C(F)F)C(=O)N1` [Compound 017] has an IC50 [1, 6] of 15.3 nM and an IC50 [2, 7] of 31.3 nM.
Work on `CC1(C)COc2ccc(F)cc2CN2c3nc4c(c(C#CC5CC5)nn4cc3OC[C@H]2C(F)F)C(=O)N1` [Compound 020] yielded an IC50 [1, 6] of 1.1 nM and an IC50 [2, 7] of 10 nM.
With `O=C1NC2(CCC2)COc2ccc(F)cc2CN2c3nc4c1c(Br)nn4cc3OC[C@H]2C(F)F` [Compound 021] the IC50 [1, 6] was 4 nM and the IC50 [2, 7] was 7 nM.
Molecule `O=C1N[C@H]2C[C@H](C2)Oc2ccc(F)cc2CN2c3nc4c1c(Br)nn4cc3OC[C@H]2C(F)F` [Compound 023] has an IC50 [1, 6] of 1.2 nM, an IC50 [3] of 10.8 nM and an IC50 [4] of 1.8 nM. For the same molecule, the IC50 [2, 7] was 1.5 nM.
